Results reported in patent US20220162221A1, “Imaging Agents” (UCB Biopharma SRL, priority 2017, published 2022).

Tests used:
[1] = molecular target: human D1R (Homo sapiens, UniProt P21728); assay: [3H]SCH23390 radioligand competitive binding (CEREP); set-up: purchased CEREP (Celle l'Evescault, France), contract assay
Method: (§1) To assess compound (I) affinity and selectivity for D1, it has been tested in competitive radioligand binding assays. Competitive radioligand binding assays were then used to measure (±)-I affinity for D1 receptor and assess its selectivity regarding a large panel of 80 related and unrelated targets.
Affinity (pKi) of Compound of formula (±)-(I) for recombinant human D1R was measured at CEREP (Celle l'Evescault, France) by [^3]SCH23390 radioligand competitive binding experiments.

[2] = tested on: panel of 80 targets including receptors, transporters, enzymes and ion channels; assay: Selectivity panel of 80 targets (CEREP); format: binding
Method: as §1
(§2) Compound selectivity for human D1R was assessed at 10 μM at CEREP against a panel of 80 targets (n=1 with data in duplicate) including receptors, transporters, enzymes and ion channels. Potentially relevant affinity was identified for only 3 targets: dopamine D5 receptor (D5R), tachykinin NK1 receptors and adenosine transporter (ADET) with >60% inhibition at 10 μM of compound (±)-(I). Affinity (pKi) of compound of formula (±)-I for human DSR, NK1 receptor and ADET were then measured.

[3] = molecular target: T1, tachykinin NK1 receptors (Homo sapiens, UniProt P25103); assay: NK1 binding, CEREP panel; conditions: n=1 in duplicate
T1 construct: purchased CEREP, contract assay
T1 sequence (P25103 whole entry): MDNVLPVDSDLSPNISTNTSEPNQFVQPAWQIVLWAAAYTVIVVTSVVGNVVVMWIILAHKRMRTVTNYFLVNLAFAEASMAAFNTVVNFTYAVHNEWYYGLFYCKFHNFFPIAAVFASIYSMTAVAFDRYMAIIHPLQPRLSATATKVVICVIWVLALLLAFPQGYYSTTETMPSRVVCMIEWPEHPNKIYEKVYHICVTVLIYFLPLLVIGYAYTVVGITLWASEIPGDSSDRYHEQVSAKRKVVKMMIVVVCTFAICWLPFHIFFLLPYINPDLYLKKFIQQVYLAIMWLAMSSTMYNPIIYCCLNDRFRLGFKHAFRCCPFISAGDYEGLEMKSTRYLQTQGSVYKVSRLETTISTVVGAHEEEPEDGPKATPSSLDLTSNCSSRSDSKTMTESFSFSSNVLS
Method: as §2

[4] = molecular target: hD1R in SK-N-MC cells (Homo sapiens, UniProt P21728); assay: cAMP HTRF D1 functional assay; conditions: cAMP HTRF
Chain of hD1R in SK-N-MC cells (P21728 whole entry): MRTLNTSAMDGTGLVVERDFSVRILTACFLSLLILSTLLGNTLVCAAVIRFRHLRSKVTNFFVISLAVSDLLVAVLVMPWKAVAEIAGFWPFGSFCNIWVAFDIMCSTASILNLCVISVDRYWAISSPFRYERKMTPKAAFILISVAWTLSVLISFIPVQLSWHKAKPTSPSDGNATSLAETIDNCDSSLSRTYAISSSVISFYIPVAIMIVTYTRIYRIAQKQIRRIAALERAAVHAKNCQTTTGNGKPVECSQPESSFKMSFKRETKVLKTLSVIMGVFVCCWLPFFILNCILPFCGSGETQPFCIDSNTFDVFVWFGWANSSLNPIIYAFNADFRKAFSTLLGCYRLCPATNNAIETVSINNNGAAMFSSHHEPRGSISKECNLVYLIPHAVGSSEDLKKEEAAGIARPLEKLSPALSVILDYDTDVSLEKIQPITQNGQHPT
Method: The reaction was terminated by consecutive additions of 10 μL d2 detection reagent and the cryptate reagent both diluted in lysis buffer. After a period of 60 min at room temperature, changes in HTRF emission ratio were determined and transformed in [cAMP]i using a standard curve.

[5] = molecular target: T2, dopamine D5 receptor (D5R) (Homo sapiens, UniProt P21918); assay: D5R binding, CEREP panel and pKi follow-up
T2 construct: purchased CEREP, contract assay
T2 sequence (P21918 whole entry): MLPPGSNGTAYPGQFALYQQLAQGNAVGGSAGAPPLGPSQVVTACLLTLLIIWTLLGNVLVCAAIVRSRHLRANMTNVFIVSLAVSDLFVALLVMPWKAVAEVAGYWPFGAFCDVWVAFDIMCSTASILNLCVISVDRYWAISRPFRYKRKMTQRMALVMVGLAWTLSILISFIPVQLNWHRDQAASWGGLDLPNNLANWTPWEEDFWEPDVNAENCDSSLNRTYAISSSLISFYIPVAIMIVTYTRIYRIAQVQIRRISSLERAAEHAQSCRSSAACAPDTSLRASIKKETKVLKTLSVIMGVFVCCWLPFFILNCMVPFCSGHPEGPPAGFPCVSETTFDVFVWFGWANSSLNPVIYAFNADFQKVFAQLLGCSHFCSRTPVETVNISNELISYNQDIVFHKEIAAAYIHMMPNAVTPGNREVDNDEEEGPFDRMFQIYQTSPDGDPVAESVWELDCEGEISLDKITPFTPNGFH
Method: as §2

[6] = tested on: adenosine transporter (ADET); assay: Adenosine transporter binding, CEREP panel; set-up: species or system human; conditions: at 10 μM, n=1 in duplicate
Method: as §2

[7] = competitive radioligand binding

Chain of human D1R (P21728 whole entry): as the sequence (P21728 whole entry) above

Cc1c(-c2ccc(Oc3nccc4occc34)cc2CF)n(C)c(=O)[nH]c1=O (racemic) [Compound (±)-(I), 6-[2-(fluoromethyl)-4-(furo[3,2-c]pyridin-4-yloxy)phenyl]-1,5-dimethylpyrimidine-2,4(1H,3H)-dione]
Ki ([1]; [3H]SCH23390 competition, read-out: pKi for human D1R (converted)): 0.631 nM | affinity for D1 receptor [1, 7]: subnanomolar range | selectivity with respect to the other 79 tested targets ([2]; D1-like vs other targets): more than 1000 fold | pKi for the other 79 tested targets ([2]; all targets other than D1R, D5R excepted by text): ≤ 6.0 | binding to the other tested targets ([2]; panel of 80 targets): do not significantly bind | inhibition at 10 µM [3]: > 60% | agonist-like effect on D1 receptor [4]: significant direct agonist-like effect | Ki [5]: 0.398 nM | inhibition at 10 µM ([5]; at 10 μM, n=1 in duplicate): > 60% | affinity for D5 receptor [5, 7]: subnanomolar range | inhibition, adenosine transporter (ADET) [6]: > 60%
